From patent US20140323346A1, “BINDING AGENT” (Garvan Institute of Medical Research, priority 2011, published 2014)

What was measured:
[1] = test system: protein kinases in MDA-MB-231 breast cancer cell lysates; experiment: Affinity purification of kinases from MDA-MB-231 cell lysates on inhibitor resins, bound proteins identified by LC-MS/MS; assay type: binding, Homo sapiens; conditions: MDA-MB-231 lysate
Procedure: MDA-MB-231 cells were cultured in RPMI1640 (Invitrogen) supplemented with 10% fetal bovine serum (Invitrogen) and insulin at 0.25 IU/ml. Subconfluent cells were lysed with ice-cold lysis buffer containing 50 mM HEPES-NaOH (pH 7.5), 150 mM NaCl, 0.5% Triton X-100, 1 mM EDTA 1 mM EGTA supplemented with additives (10 μg/ml aprotinin, 10 μg/ml leupeptin, 1 mM PMSF, 10 mM NaF, 50 ng/ml calyculin A, 1% phosphatase inhibitor mixture 3 (Sigma), and 2.5 mM Na3VO4) for 5 min on ice. Cell debris was removed by centrifugation at 16,500 g at 4° C. for 30 min and the supernatant was subsequently filtered through a 0.45 μm PVDF membrane (Millipore). Protein concentrations were measured by the Bradford assay (Bio-Rad).
Kinase inhibitors Purvalanol B (Tocris) and SU6668 (Biochempartner Chemical) were immobilized to EAH-sepharose 4B (GE Healthcare) and VI16832 (Evotec) was coupled to ECH-sepharose 4B (GE Healthcare) beads via a carbodiimide-mediated reaction. Briefly, 1 ml of beads were washed 3 times with 10 ml of 0.5 M NaCl, twice with 10 ml H2O and once with coupling buffer made of 50% dimethylformamide (DMF) and 50% ethanol. The washed and aspirated beads were then mixed with 1 ml of inhibitor solution (Purvalanol B at 10 mM, SU6668 at 10 mM and VI16832 at 3 mM dissolved in coupling buffer), followed by dropwise addition of 150 μl of 1 M N-(3-dimethylaminopropyl)-N-ethylcarbodiimide hydrochloride (EDC) in coupling buffer.
The coupling reaction was carried out in the dark at room temperature overnight on a rotating wheel. To block the remaining reactive groups, the resin was washed twice with 2 ml of coupling buffer followed by addition of 1 ml of DMF/ethanol/ethanolamine at ratio 1:1:1 (pH 8). The reaction was initiated by dropwise addition of 150 μl of 1 M EDC in coupling buffer and the mixture was then incubated again in the dark at room temperature overnight with gentle agitation. Subsequently the resin was washed 3 times with 10 ml of coupling buffer, twice with 10 ml of 0.5 M NaCl and once with 10 ml of 20% ethanol. The resin was stored in 20% ethanol as a suspension at 4° C. in the dark. For CTx-0294885 immobilization, activated CH Sepharose 4B (GE Healthcare) (0.5 g) was swelled with 20 ml of 1 mM HCl and collected by vacuum filtration. The collected resin was washed 4 times with 20 ml of 1 mM HCl, and mixed with 3 ml of CTx-0294885 (9 mM) dissolved in 50% DMF 50% 100 mM sodium bicarbonate (pH 8). The suspension was agitated on a shaker table for 18 h. The mixture was washed with 5 ml of 50% aqueous DMF and the resin was resuspended in IM ethanolamine in 50% aqueous DMF. The mixture was agitated for 1 h before the resin was collected by filtration and washed 5 times with 5 ml of 50% aqueous DMF, 10 times with 10 ml of 0.1 M acetate buffer (pH 4), 10 times with 10 ml of 0.1 M bicarbonate buffer (pH 8), and 10 times of 10 ml 20% ethanol. The resin was resuspended in 10 ml of 20% ethanol and stored at 4° C. An equally suitable alternative protocol for CTx-0294885 immobilization is described in Example 2.
The salt concentration in the protein lysates was adjusted to 1 M NaCl and the kinase inhibitor resins were washed once with 10 ml of H2O and once with 10 ml of washing buffer A (lysis buffer with 1 M NaCl plus 10 mM NaF and 0.1 mM Na3VO4) prior to kinase enrichment. For testing of single kinase inhibitors, 1 ml of inhibitor resin was incubated with 50 mg of protein lysates, and for multi-inhibitor resins, a cocktail comprising 1 ml of each inhibitor resin was used for incubation with 100 mg of protein lysates. After 2 h of incubation at 4° C. in the dark on a rotating wheel, the resins were washed twice with 10 ml of washing buffer A, once with 10 ml of washing buffer B (same as washing buffer A except NaCl concentration is 150 mM instead of 1 M) and once with washing buffer C (50 mM HEPES, 10 mM NaF and 0.1 mM Na3VO4). […]

[2] = test system: protein kinases from three different cell lines; conditions: cited from earlier work

Row | SMILES | proteins identified ([1]; CTx-0294885 coupled to CL sepharose 4B beads, single resin) | kinases of the RGC (receptor guanylate cyclase) family identified ([1]; FIG. 2A) | major kinase subgroups with representatives identified ([1]; FIG. 2A) | relative enrichment of kinase families ([1]; FIG. 2B) | kinases bound that are not bound by the other reagents (P, S, V) ([1]; comparison with purvalanol B, SU6668 and VI16832 columns) | enrichment of non-protein kinases ([1]; gene ontology analysis, FIG. 2C) | kinase identifications if phosphosites are included (kinases bound) ([1]; single resin) | kinases identified among the proteins identified ([1]; single resin, phosphosites not included) | protein kinases detected in total [2]
1 | CNC(=O)c1ccccc1Nc1nc(Nc2ccc(N3CCNCC3)cc2)ncc1Cl [CTx-0294885, 2-((5-Chloro-2-((4-(piperazin-1-yl)phenyl)amino)pyrimidin-4-yl)amino)-N-methylbenzamide] | 2546 | No kinases from the minor RGC (receptor guanylate cyclase) family were identified | 9 | particularly strong enrichment for kinases of the STE, CMGC and AGC subfamilies | 77 | enrichment for other purine nucleotide binding proteins | 240 | 185 | –
2 | NCCOc1ccc(Nc2ncc3ccc(=O)n(C4CC5CCC4C5)c3n2)cc1 (stereo not drawn) [VI16832] | – | – | – | – | – | – | – | – | 170
